The values below come from patent US9079964B2, “Immunoassay for cyclopropylindole based synthetic cannabinoids, metabolites and derivatives thereof” (Randox Laboratories Limited, priority 2013, dated 2015).

Test [1] relates to antiserum raised to Immunogen I. The test can be described thus: Competitive ELISA with IgG fraction of antiserum raised to Immunogen I (second bleed) and hapten 1-HRP detecting agent. It counts as binding, sheep. The following applies: Table 1; for % B/BO: B = absorbance at 450 nm at x ng/ml standard, B0 at 0 ng/ml; for % B/BO / IC50: second bleed; for % Cross-reactivity (CR): CR based on 100% for UR-144 N-pentanoic acid; for IC50: standard concentration which produces 50% B/B0. The method, then:
(§1) The wells of an enhanced binding 96 well polystyrene microtiter plate were coated with IgG fraction of antiserum raised to Immunogen I or II, diluted in 10 mM Tris, pH 8.5 (125 μl/well). The appropriate antibody coating dilution was determined using standard ELISA checkerboard techniques. The plate was incubated overnight at 4° C., washed 4 times over 10 minutes with Tris buffered saline containing Tween20 (TBST) and tapped dry. Standard solutions (UR-144 N-pentanoic acid) were applied at 0, 0.625, 1.25, 2.5, 5, 10, 20 and 40 ng/ml and 50 μl of each was added to the appropriate wells. 75 μl of conjugate (appropriate hapten-HRP) diluted in Tris buffer (pH 7.2) containing EDTA, D-mannitol, sucrose, thimerosol and BSA, was added to each of the wells. The appropriate dilution of conjugate was also determined using standard ELISA checkerboard techniques. The plate was incubated at 25° C. for 1 hour. Excess unbound conjugate was removed by washing 6 times over a ten minute period with TBST. 125 μl of tetramethylbenzidine (TMB) substrate solution was added to each well of the plate that was then incubated for 20 minutes in the dark at room temperature. The reaction was terminated by addition of 125 μl of 0.2 M H2SO4 to each well. The absorbance was then measured at 450 nm using a microtiter plate reader. The data are inputted to a computer program called ‘KC Junior’ (Biotek). It gives a 4 parameter fit curve and allows the calculation of concentrations between the standard runs. This program is used to calculate the IC50 values by dividing the 0 ng/ml optical density (OD) value by 2 and obtaining the concentration value from the curve for this OD.
(§2) Cross-reactivity was calculated according to the following formula: % CR=IC50, UR-144 N-pentanoic acid/IC50, cross reactant×100 Where % CR is the percentage cross-reactivity, IC50, UR-144 N-pentanoic acid is the concentration of UR-144 N-pentanoic acid that causes 50% displacement of signal and IC50, cross reactant is the concentration of the cannabinoid/metabolite/selected molecule that causes 50% displacement of signal.
In order to determine the specificity of the competitive ELISAs, standard solutions of a range of structurally related synthetic cannabinoids and their metabolites were prepared in TBST (Tris-Buffered Saline and Tween 20). Using the calibration curves generated and employing a single level of cross reactants, these were used to determine the cross-reactivity of the immunoassays with these substances.
In general terms: In an ELISA, binding on a coated surface is turned into a signal by an enzyme label.

The test system is the same in test [2]. The test can be described thus: UR144/XLR11 Synthetic Cannabinoids (Spice) ELISA, antiserum raised to Immunogen I (third bleed). It counts as binding, sheep. The note with it: Table 4, relative to UR144 N-Pentanoic Acid = 100. On the procedure: as §1, §2
A further assay was carried out in accordance with the protocol described in Example 9 using Immunogen I.

The target of a further test is CB1 receptor (Homo sapiens, UniProt P21554). The following applies: CB1 versus CB2; cited from earlier work.
Chain of CB1 receptor (P21554 whole entry): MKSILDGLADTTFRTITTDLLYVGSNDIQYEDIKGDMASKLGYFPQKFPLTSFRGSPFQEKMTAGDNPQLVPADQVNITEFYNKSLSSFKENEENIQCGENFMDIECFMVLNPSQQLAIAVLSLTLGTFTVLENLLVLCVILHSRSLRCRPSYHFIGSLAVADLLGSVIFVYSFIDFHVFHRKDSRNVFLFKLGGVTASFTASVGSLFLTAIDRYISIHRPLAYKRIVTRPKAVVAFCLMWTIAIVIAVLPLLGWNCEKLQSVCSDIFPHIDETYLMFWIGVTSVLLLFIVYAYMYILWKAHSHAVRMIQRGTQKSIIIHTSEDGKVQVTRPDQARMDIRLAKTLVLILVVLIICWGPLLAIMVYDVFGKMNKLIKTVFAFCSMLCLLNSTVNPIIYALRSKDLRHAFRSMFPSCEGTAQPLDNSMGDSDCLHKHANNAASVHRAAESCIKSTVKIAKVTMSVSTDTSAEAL
Test [3] relates to antibodies provided in European patent application number 2,487,155. The note with it: antibodies of EP 2,487,155; cited from earlier work.

For `CCCCCn1cc(C(=O)C2C(C)(C)C2(C)C)c2ccccc21` [UR-144, (1-pentyl-1H-Indol-3-yl)(2,2,3,3-tetramethylcyclopropyl) methanone], in test [1], the “% B/BO” value is reported as 40.5%, the “% Cross-reactivity (CR)” value turned out to be 15.3% and the concentration for half-maximal inhibition (IC50) (usually the concentration that inhibits the measured activity by half) turned out to be 0.022815 µg/mL. The “% Cross-Reactivity” value in test [2] is given as 19%. In addition, on CB1 receptor, the “lower affinity for the CB1 receptor than for CB2” value is on record as 83 ×. The “cross-reactivity (in words)” value in test [3] was “no significant cross-reactivity”.
`CC1(C)C(C(=O)c2cn(CCCCCF)c3ccccc23)C1(C)C` [XLR-11, (1-(5-fluoropentyl)-1H-Indol-3-yl)(2,2,3,3-tetramethylcyclopropyl) methanone]: in test [1], the “% B/BO” value is 24.0%, the “% Cross-reactivity (CR)” value was 36.9% and the half-maximal inhibitory concentration (IC50) is 0.009454 µg/mL. Besides, the “% Cross-Reactivity” value in test [2] turned out to be 29%.
